Measurements from patent publication US8765720B2, “Combination therapy for the treatment of multiple myeloma” (Cephalon, Inc., priority 2009, dated 2014).

How the values were obtained:
[1] = tested on: MM1S cells; experiment: Cell viability assay (MTS assay), MM1S cells; assay type: cell-based, human; conditions: Homo sapiens, MM1.S, single-agent bortezomib 0.5 nM, 48 hours, read-out: inhibition of cell viability
Experimental: In vitro synergy between COMPOUND 1 and bortezomib or melphalan was assessed using the median effect method of Chou and Talalay (30). Combination indices (CIs) were calculated separately for each combination. […] CIs between 0.9 and 1.1 were considered to indicate additive drug effects (31).

[2] = in vitro; conditions: human
Source text: The human myeloma cell line RPMI8226 was obtained from American Type Culture Collection (Rockville, Md.). The MM1S myeloma cell line was provided by Dr. Steven Rosen (Northwestern University, Chicago, Ill.). Normal peripheral blood mononuclear cells (PBMCs) were isolated by Histopaque® density gradient centrifugation, according to the manufacturer's protocol (Sigma-Aldrich, St. Louis, Mo.). Myeloma cell lines and PBMCs were maintained in RPMI 1640 (Omega Scientific, Tarzana, Calif.) supplemented with 10% fetal bovine serum, 2 mM L-glutamine, 100 IU/mL penicillin, 100 μg/mL streptomycin, and essential amino acids in an atmosphere of 5% carbon dioxide (CO2) at 37° C.
Cells were seeded at 10^5 cells/100 μL/well in 96-well plates and incubated for 24 hours. RPMI8226 and MM1S cells were cultured in the presence of vehicle, COMPOUND 1, bortezomib, melphalan, COMPOUND 1+bortezomib, or COMPOUND 1+melphalan for 48 hours. After the incubation period, cell viability was quantified using the CellTiter 96® AQueous Non-Radioactive Cell Proliferation Assay (Promega, Madison, Wis.). Each well was treated with MTS (3-(4,5-dimethylthiazol-2-yl)-5-(3-carboxymethoxyphenyl)-2-(4-sulfophenyl)-2H-tetrazolium, inner salt) for 1 to 4 hours, after which absorbance was recorded at 490 nm. The quantity of formazan product as measured by absorbance at 490 nm is directly proportional to the number of living cells in culture.
In order for therapy with two or more PIs to be feasible in vivo, the combination must spare non-neoplastic cells. […] A healthy donor's PBMCs were cultured for 48 hours in the presence of COMPOUND 1 alone, bortezomib alone, or both agents together, and cell viability was quantified by MTS assay.

[3] = tested on: RPMI8226 cells; experiment: Apoptotic assay by annexin V and propidium iodide staining; assay type: cell-based, human; conditions: 2.5 nM for each drug, 30 hours
Experimental: To quantify apoptosis in response to drug treatment, RPMI8226 cells (5×10^5 cells per well) were incubated with vehicle or PIs at 37° C. and 5% CO2 for 30 hours. As a positive control, cells were incubated with 250 ng/mL of actinomycin D for 24 or 48 hours. Cells were then washed twice with phosphate-buffered saline, resuspended in binding buffer (100 mM HEPES/NaOH, pH 7.5 containing 1.4 M NaCl and 25 mM CaCl2), and stained with fluorescein isothiocyanate (FITC)-conjugated annexin V and with the fluorescent dye propidium iodide (PrI), according to the manufacturer's protocol (BioVision, Mountain View, Calif.). For each drug treatment, 1×10^5 gated events were recorded. Cells negative for both PI and annexin V staining were considered live; annexin V-positive, PrI-negative cells were considered early apoptotic; annexin V-positive, PrI-positive cells were considered late apoptotic. Flow cytometric analyses were performed using a Beckman Coulter FC500 cytometer with Cytomics CXP software (Beckman Coulter, Fullerton, Calif.).

[4] = tested on: LAGκ-1A tumor; experiment: Intramuscular LAGκ-1A tumor xenograft model (serum hIgG, tumor volume); conditions: alone or together
Experimental: (§1) Six- to 8-week-old male severe combined immunodeficient (SCID) mice were obtained from the Jackson Laboratory (Bar Harbor, Me.) and maintained in a specific pathogen-free area in our animal resources facility. All animal studies were conducted according to protocols approved by the Institutional Animal Care and Use Committee. Animals were anesthetized with ketamine, xylazine, and isoflurane prior to surgery and were euthanized when tumors reached 2 cm in diameter.
(§2) Biopsy tissue was surgically implanted in the hind limbs of anesthetized SCID mice and passaged through succeeding generations (32).
(§3) Myeloma tumors (LAGκ-1A or LAGκ-1B) were excised from an anesthetized donor mouse, sectioned into 20 to 40 mm^3 pieces, and surgically implanted into the left superficial gluteal muscle of anesthetized naive SCID mice. Recipient mice received weekly injections of anti-asialo GM1 rabbit serum (Wako Bioproducts, Richmond, Va.) to further suppress immune activity. Mice were blindly assigned to one of the experimental groups, and treatment was initiated 7 to 21 days after tumor implantation. COMPOUND 1 was administered via oral gavage daily (0.5-5.0 mg/kg) or twice weekly (5-10 mg/kg). COMPOUND 1 was also administered twice weekly (W, F) via either IV injection (0.5-3.0 mg/kg) or oral gavage (10 mg/kg), as specified. Melphalan (1 mg/kg) was provided via weekly intraperitoneal (IP) injections (W). Bortezomib (0.5 mg/kg) was dispensed twice weekly (T, Th) via IV injection. Control treatment consisted of COMPOUND 1 diluent (3.2 mL 5% mannitol and 800 μL propylene glycol) alone.
Mice bearing MM tumors underwent weekly retro-orbital bleeds. Resulting samples were spun at 13,000 rpm for 30 minutes to isolate serum. The hIgG ELISA kit (Bethyl Laboratories, Montgomery, Tex.) was used according to the manufacturer's specifications. Absorbance at 450 nm with a reference wavelength of 550 nm was determined on a μQuant microplate spectrophotometer with KC Junior software (Bio-Tek Instruments, Winooski, Vt.). Data graphed are the mean±SEM with n=7-8 mice/group.
(§4) As a direct measurement of tumor growth, calipers were used to assess tumor volume weekly, and the formula for an ellipsoid volume was applied ( 4/3π×[width/2]^2×[length/2]).
(§5) Percent inhibition of tumor growth is represented as the tumor volume of the test drug group over the tumor volume of the untreated group (T/C). The optimal value is the minimal T/C ratio that reflects the maximal tumor growth inhibition achieved. The criterion for efficacy for the T/C ratio is ≦42%, according to National Cancer Institute (NCI) standard criteria (44).
(§6) Efficacy of drug therapy against tumors was standardized to the time (t) required for the untreated tumor to grow to a determined size based on the greatest difference in time to reach a tumor volume between the control and treatment group. This value can be represented as the growth delay (in days) between treated and control (tt−tc) (44).
(§7) Tumor growth and hIgG levels were analyzed in terms of treatment group means and standard error. Student's t-test was applied to determine the statistical significance of differences between treatment groups. Minimal significance level was P<0.05.

[5] = tested on: LAGκ-1B tumor; experiment: Intramuscular LAGκ-1B tumor xenograft model (tumor volume)
Experimental: as §1, §2
as §3, with “Melphalan (1 mg/kg) was provided via weekly intraperitoneal (IP) injections (W).” left out
as §4, §5, §6, §7

[6] = tested on: apoptosis-inducing factor (AIF); experiment: Immunohistochemical analysis of AIF expression in LAGκ-1B tumors; assay type: in vivo, SCID mice; conditions: COMPOUND 1 1 mg/kg, bortezomib 0.5 mg/kg, alone or both; tumors excised post-treatment
Experimental: LAGκ-1B tumors were fixed in 4% paraformaldehyde and cut into 5 μm sections. Briefly, sections were blocked with Tris-buffered saline with 0.05% Tween-20 (TBST) and 3% BSA for 1 hour at room temperature and then incubated overnight with a rabbit antibody against AIF (Sigma, St. Louis, Mo.). The sections were washed three times with TBST and treated with horse radish […] anti-rabbit antibody (KPL, Gaithersburg, Md.) diluted 1:500 in TBST at room temperature for 2 hours. The slides were washed three times in TBST and placed in 3-amino-9-ethylcarbazole (AEC) buffer for 5 minutes, and color was detected using an AEC kit (Dako, Glostrup, Denmark). Staining was documented using an Olympus BX51 microscope (Olympus Imaging America Inc., Center Valley, Pa.) and analyzed by Microsuite Biological Suite program (Olympus BX51).

[7] = tested on: CD138-negative MM cells; conditions: single agent; cited from earlier work
[8] = tested on: RPMI8226 cells; experiment: Cell viability assay (MTS assay), RPMI8226 cells; assay type: cell-based, human; conditions: Homo sapiens, RPMI-8226, 48 h, read-out: decrease in cell viability
Experimental: Combination indices (CIs) were calculated separately for each combination. […] CIs between 0.9 and 1.1 were considered to indicate additive drug effects (31).

[9] = bortezomib 0.5 mg/kg IV, COMPOUND 1 1 mg/kg IV, alone or together

| SMILES | cytotoxicity at 0.0005 µM [1] | viability at 48 h, 9 nM [2] | proportion of cells in early apoptosis (PrI−/Annexin V+) [3] | serum hIgG levels and tumor volume vs vehicle ([4]; COMPOUND 1 1 mg/kg IV, bortezomib 0.5 mg/kg IV, twice weekly) | days to tumor progression [5, 9] | survival longer than vehicle-treated mice [5, 9] | tumor growth vs vehicle ([5]; bortezomib 0.5 mg/kg IV, COMPOUND 1 1 mg/kg IV, alone or together, combination after 21 days P=0.0014) | drug-related / toxicity-related deaths ([5]; mouse, in vivo) | AIF expression vs vehicle-treated tumors [6] | effect on growth of CD138-negative MM cells [7] | cytotoxicity at 40 µM [8] | serum hIgG levels and tumor volume vs vehicle ([4]; melphalan 1 mg/kg IP weekly, COMPOUND 1 1 mg/kg IV twice weekly, 3 weeks) | tumor volume ([5]; melphalan 3 mg/kg IP weekly, COMPOUND 1 1 mg/kg IV twice weekly, alone or together, three weeks) |
| --- | --- | --- | --- | --- | --- | --- | --- | --- | --- | --- | --- | --- | --- |
| CC(C)C[C@H](NC(=O)[C@H](Cc1ccccc1)NC(=O)c1cnccn1)B(O)O [bortezomib, [(1R)-3-methyl-1-({(2S)-3-phenyl-2-[(pyrazin-2-ylcarbonyl)amino]propanoyl}amino)butyl]boronic acid, reference compound] | ~16% | ~85% | 17.5 % of cells | only partially inhibited | 35 days | 20% | only modestly suppresses | one death each | elevated AIF expression | little effect | – | – | – |
| N[C@@H](Cc1ccc(N(CCCl)CCCl)cc1)C(=O)O [melphalan, 4-[bis(2-chloroethyl)amino]-L-phenylalanine, reference compound] | – | – | – | – | – | – | – | – | – | – | ~30% | no effect | partially inhibited |
